Key:
A2780 cells = assay: Cell viability with N-acetylcysteine (MTT), A2780; format: cell-based, human; settings: A2780, NAC 5 mM 30 min before complexes at IC50
Experimental: Cell viability with N ‐acetylcysteine: Cells were seeded in 96‐well plates at a concentration of 7.5×10^3 cells per well and the plates were incubated for 24 h at 37 °C and a 5 % CO2 humidified atmosphere prior to drug exposure. Complexes were dissolved in either DMSO or PBS to provide stock solutions which were further diluted with media to provide a range of final concentrations. Solution of N‐acetylcysteine (NAC) in media was also prepared. […] Cells were incubated for 24 h at 37 °C and a 5 % CO2 humidified atmosphere. 3‐(4,5‐dimethylthiazol‐2‐yl)‐2,5‐diphenyltetrazolium bromide (MTT) (20 μL, 2.5 mg/mL) was added to each well and plates were incubated for 2 h. All solutions were then removed and 100 μL of DMSO was added to each well in order to dissolve the purple formazan crystals. A Thermo Scientific Multiskan EX microplate photometer was used to measure the absorbance in each well at 570 nm. Cell survival was determined as the absorbance of treated cells divided by the absorbance of controls and expressed as a percentage.

[1] = tested on: A2780cisR subcutaneous tumour xenograft; assay: Efficacy in A2780cisR (A2780/cis) subcutaneous tumour xenograft model; format: in vivo, Female Balb/c immunodeficient nude mice; settings: 6 at 50 mg/kg, 8 at 15 mg/kg, i.p.; for Median time to RTV2 / Maximum % weight loss / Growth delay: A2780/cis xenograft, days 0–4; for Maximum % weight loss: day in brackets; for Growth delay: versus untreated
Experimental: (§1) Compounds: All compounds were provided in powdered form and stored in the −20 °C freezer. They were formulated just before use. […] The drugs were then administered within 10 minutes of initial dilution.
(§2) Animals: Female Balb/c immunodeficient nude mice aged 6–12 weeks were used (Envigo, Blackthorn, UK). Mice were kept in cages housed in isolation cabinets in an air‐conditioned room with regular alternating cycles of light and darkness. They received Teklad 2018 diet (Envigo, Blackthorn, UK) and water ad libitum. All animal procedures were carried out under a project licence issued by the UK Home Office and UK National Cancer Research Institute Guidelines for the Welfare of Animals were followed throughout.
S.c. xenograft tumours: A2780/WT and A2780/cis tumours were excised from a donor animal, placed in sterile physiological saline containing antibiotics and cut into small fragments of approximately 5 mm^3. Under brief general inhalation anaesthesia, fragments were implanted in the flank of each mouse using a trocar. Once the tumours could accurately be measured by callipers, the mice were allocated into groups (control or treated) by restricted randomisation to keep group mean tumour size variation to a minimum, with 3 animals set up per group.
Evaluation of efficacy in s.c. xenograft models: The compounds were prepared fresh on the days of treatment as described above and administered i. p. to mice on days 0–4 in a volume of 0.1 mL per 10 g of body weight. […] The negative control group was untreated.
The effects of therapy were assessed by frequent monitoring growth of the tumours and body weight. Two‐dimensional calliper measurements of the tumours were taken, and volumes calculated using the formula (a^2×b)/2, where a is the smaller and b the larger diameter of the tumour. Tumour volume was then normalised to the respective volume on day 0, and semi‐log plots of relative tumour volume (RTV) versus time were made. Mann‐Whitney U tests were performed to determine the statistical significance of any differences in growth rate (based on tumour volume doubling time, RTV2) between control and treated groups.

[2] = Reactivity with NAC by NMR; format: physicochemical; settings: NMR studies over 24 hours
[3] = mice
Experimental: as §1, §2
(1 picture or pasted object on this page, not shown here)

| Compound | Cell viability after pre-treatment with NAC (A2780 cells) | Median time to RTV2 [1] | Maximum % weight loss [1] | Growth delay [1] | Reaction with NAC [2] | maximum tolerated dose (MTD) ([3]; i.p. daily, monitored for a further two weeks) | Toxicity in MTD run ([3]; i.p., 15mg/kg in 20 % DMSO/arachis oil, full run) | Toxicity in xenograft study ([1]; A2780cisR xenograft) |
| --- | --- | --- | --- | --- | --- | --- | --- | --- |
| (η^6‐p‐cymene)(TPPTS)Ru(Mnt) [Complex 6] | increase of the cell viability | 3.0 days | 2% | 0.2 days | do not react together | – | – | – |
| Cc1ccc(C(C)C)cc1.N#CC1=C(C#N)[S][Ru-]([P+](c2ccccc2)(c2ccccc2)c2ccccc2)[S]1 [Complex 8, (η^6‐p‐cymene)(PPh3)Ru(Mnt)] | increase of the cell viability | 10.0 days | 2% | 7.2 days | – | 15 mg/kg | no evidence of toxicity was seen | No toxicity was observed |
